Results from article PMC11860126, “X-Ray Irradiation Induces Oxidative Stress and Upregulates Intestinal Nrf2-Mrp2 Pathway, Leading to Decreased Intestinal Absorption of Valsartan” (Pharmaceutics, 2025).

Test system: Caco-2 cells
Experiment: Caco-2 cell uptake assay of valsartan with Mrp2/P-gp inhibitors and irradiation
Details: valsartan 10 μM, 5 Gy X-ray 24 h before

With CCCCC(=O)N(Cc1ccc(-c2ccccc2-c2nnn[nH]2)cc1)[C@H](C(=O)O)C(C)C [valsartan, Valsartan] the “valsartan uptake in Caco-2 cells, IR group compared with control group” value (1 h, p < 0.05) was “significant reduction” and the “valsartan uptake in Caco-2 cells, IR group compared with control group” value (2 h) was “no significant difference”.
